Data on two compounds can be found in US12673034B2, “Peptides, compounds, compositions and methods for inhibiting SOX9” (CRITICAL OUTCOME TECHNOLOGIES INC., priority 2019, dated 2026).

Residue numbers refer to the chain shown, from its start. Like-named read-outs stand apart in the source and are kept apart here.

Series [1] is described as follows: Spinal cord concentration after intravenous injection, UPLC coupled to mass spectrometry. The series is classed as in vivo, rat. As to the method: Compound 1 was delivered intrathecally as it was initially unknown the inhibitory compound could cross the blood brain barrier. To resolve this issue a subsequent study was carried out in which control and T9 spinal cord injured rats were given intravenous injections of compound 1 (1 or 10 nmol/g) or of vehicle at 24 and 48 h after SCI and sacrificed 24 h later. […] Compound 1 was even found in the spinal cords after dosing uninjured controls (FIG. 6).
Using a standard curve, the concentration of compound 1 in the injured spinal cord after a 10 nmol/g iv injection was determined to be 2.7 μM at the lesion epicenter, 1.9 μM in the lumbar cord and 1.02 μM in the uninjured cord.

Series [2] concerns spinal cord injured rats. The series can be described thus: Locomotor recovery (hind limb function, open field test, BBB score) after thoracic SCI. The series is classed as in vivo. The settings on record: rat, T9 200 kdyne SCI, intrathecal approximately 400 μg/Kg/day. As to the method: In a longer-term study, compound 1 (approximately 400 μg/Kg/day) or vehicle was again delivered intrathecally to rats immediately after a T9, 200 kdyne SCI, and hind limb function was evaluated twice per week by an observer blinded to treatment group in an open field test for […] (FIG. 5). […] By day 56 the compound 1-treated rats achieved average locomotor BBB scores (Basso et al 1995) of 12.4±0.8 indicating consistent weight supported plantar placement and occasional forelimb/hind limb coordination while the vehicle-treated rats only achieved an average locomotor BBB score of 10.4±0.7, indicating occasional weight supported planter placement with no forelimb/hind limb coordination.

Series [3] addresses T1, SOX9 (Mus musculus, UniProt Q04887).
T1 sequence (Q04887 1-507): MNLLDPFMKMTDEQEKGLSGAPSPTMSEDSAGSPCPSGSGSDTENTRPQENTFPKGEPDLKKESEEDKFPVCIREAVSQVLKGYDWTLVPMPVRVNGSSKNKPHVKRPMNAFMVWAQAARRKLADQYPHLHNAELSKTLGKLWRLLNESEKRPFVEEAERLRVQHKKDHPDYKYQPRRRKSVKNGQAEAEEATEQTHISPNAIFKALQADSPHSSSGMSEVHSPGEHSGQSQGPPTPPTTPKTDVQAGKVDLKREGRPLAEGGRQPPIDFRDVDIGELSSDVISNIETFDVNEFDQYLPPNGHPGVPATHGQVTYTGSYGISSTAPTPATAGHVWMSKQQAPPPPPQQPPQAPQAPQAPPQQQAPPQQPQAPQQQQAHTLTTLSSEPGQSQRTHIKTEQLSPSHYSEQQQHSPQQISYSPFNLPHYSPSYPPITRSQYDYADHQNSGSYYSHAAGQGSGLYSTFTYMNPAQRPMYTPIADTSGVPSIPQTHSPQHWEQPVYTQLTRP
Put plainly: SOX9 target gene expression in primary mouse astrocyte cultures. The series is classed as cell-based. On the set-up: primary mouse and rat astrocyte cultures; endogenous in cells; host or cells: primary mouse astrocyte cultures. The settings on record: primary mouse astrocyte cultures (FIG. 3).

Series [4] has as its target T2, SOX9 (Rattus norvegicus, UniProt F1LYL9).
T2 construct: endogenous in cells; host or cells: primary rat astrocyte cultures
T2 sequence (F1LYL9 1-507): T1 sequence (Q04887 1-507) with T314S, Q368P, P369Q, S427N, P432T, A441T
The series can be described thus: Q-PCR of SOX9 and SOX9 target gene expression in primary rat astrocyte cultures. As to conditions: 10 μM. The series is classed as cell-based. As to the method: FIG. 2 graphically depicts results from treatment of two-week old rat astrocytes for 48 h (hours) with 10 μM SOX-DIMER (white), which show decreased SOX9 target gene expression compared to control (FLAG-Tat) peptide-treated cultures (black) (* indicates statistical significance P<0.05, two-tailed t-test; N=4);
Primary astrocyte cultures were treated with 10 μM SOX-DIMER peptide or of a control peptide (FLAG-Tat) for 48 h and then harvested RNA.
(§1) To identify small molecule inhibitors of SOX9 design efforts focused on the septameric peptide sequence (IREAVSQ, SEQ ID NO:1, underlined in the SOX-DIMER sequence given above) identified as a subregion of the known SOX9 dimerization domain with a high likelihood of direct participation in dimerization. This prediction was based on the position of the human mutation that causes the skeletal but not the sex reversal abnormalities of campomelic dyskplasia (Bernard et al 2003). A computational screen of ˜12 million compounds was performed to identify small molecules predicted to interfere with SOX9 dimerization, based on the physical-chemical properties of the SOX-DIMER peptide motif.

For series [5], the target named is T1, SOX9. The series can be described thus: SOX9 target gene expression in chondrogenic cell line ATDC5. The series is classed as cell-based. Further details: in the chondrogenic cell line ATDC5; endogenous in cells; host or cells: ATDC5 chondrogenic cell line.
Source text: as §1
Some of the inhibitor compounds were also tested on ATDC5 cells for their effect on SOX9 target gene expression by q-PCR (aggrecan data is shown in FIG. 11) and on LX-2 (human hepatocyte (stellate cells) cells for collagen gene expression (associated with liver fibrosis), as shown in FIG. 12.

Series [6] relates to CSPG levels in the injured rat spinal cord. The series can be described thus: CSPG levels in injured rat spinal cord, biotinylated-WFA staining. The series is classed as in vivo. The settings on record: T9 200 kdyne SCI, intrathecal pump approximately 400 μg/Kg/day for 4 weeks, sections caudal to the lesion, vs vehicle. As to the method: To assess the effect of compound 1 on CSPG levels in the injured rat spinal cord, compound 1 or vehicle was delivered by an intrathecal pump delivering compound 1 at approximately 400 μg/Kg/day for 4 weeks starting immediately after a 200 kdyne T9 thoracic SCI. This dose was predicted to result in a concentration of compound 1 of between 10 and 30 μM based on an estimated cerebrospinal fluid volume of 580 μL (Murtha et al 2014) and a turnover rate of about 12-13 times per day (Simon et al 1995).

For the compound `COc1ccc(C(=O)N2CCN(C)CC2)cc1NC(=O)COc1cc(C)ccc1C(C)C` [compound 1], the concentration at 24 h after the last injection was determined as 2700 nM in series [1] (lesion epicenter, T9 spinal cord injured rat, 10 nmol/g iv at 24 and 48 h after SCI, sacrificed 24 h later, read-out: concentration in spinal cord at the lesion epicenter); 1900 nM in series [1] (lumbar enlargement (distal to the lesion), T9 spinal cord injured rat, 10 nmol/g iv at 24 and 48 h after SCI, sacrificed 24 h later, read-out: concentration in the lumbar cord); 1020 nM in series [1] (uninjured spinal cord, uninjured control rat, 10 nmol/g iv, read-out: concentration in the uninjured cord). Besides, in series [1] (rat, 1 nmol/g iv injections), the “reduction of spinal cord concentrations after 1 nmol/g relative to 10 nmol/g” value is 10 fold. Moreover, the “penetration of the blood-spinal cord barrier” value in series [1] (rat, 10 nmol/g iv, control or spinal cord injured) is given as “can penetrate the blood-spinal cord barrier”. Also, in series [2] (day 56), the “average locomotor BBB score” value is 12.4±0.8. Further, the “hind limb function in open field test” value in series [2] (vs vehicle) was “statistically significant improvement”. In addition, the “SOX9 target gene expression” value in series [3] is given as “decrease SOX9 target gene expression”; in series [4] (primary rat astrocyte cultures, 48 h vs vehicle (FIG. 3)), “decrease SOX9 target gene expression”; in series [5] it was “decrease SOX9 target gene expression”. For the same compound, the “reduction in CSPG levels (WFA staining)” value in series [6] worked out at 3 fold.
As for “SOX-DIMER: fusion between the SOX9 dimerization motif (DKFPVCIREAVSQVLKGYDW, SEQ ID NO. 2) and the protein transduction domain of the HIV-1 Tat protein (DKFPVCIREAVSQVLKGYDWKYGRKKRRQRRR)”, the “expression of SOX9 and SOX9 target genes (XT-1, XT-2, Hapln1, Collagen 2a1, GFAP, aggrecan, brevican)” value in series [4] (48 h, primary astrocyte cultures, vs control peptide FLAG-Tat, Q-PCR (FIG. 2)) is “significantly reducing the expression of SOX9 and SOX9 target genes”.
